According to patent US10100036B2, “Lappaconitine aza-cinnamic acid derivatives with anti-tumor activities and a method of preparing the same” (priority 2016, dated 2018):

Legend:
[1] = tested on: human gastric adenocarcinoma cell line (SGC-7901); assay: tumor cell proliferation inhibition test, MTT method; assay type: cell-based; conditions: 48 hours treatment
Experimental: (§1) The compounds of the present invention were subjected to tumor cell proliferation inhibition test, and the conventional MTT method was used as the test method.
(§2) Cell lines selected are human prostate cancer cell line (PC-3), human gastric adenocarcinoma cell line (SGC-7901), and human lung cancer cell (A-549). The culture medium was DMEM+15% NBS+double antibody.
(§3) Preparation of the sample solutions: compounds were dissolved in DMSO (Merck), and PBS (−) was add to 100 μL of the solution or homogeneous suspension. The solution or suspension was diluted with DMSO and PBS(−) to final concentrations of 0.1, 1, 10, 20, 40, 60, 80, 100 μmol/L.
(§4) Anti-tumor agent 5-fluorouracil (5-FU) was used as control and was prepared in the same way as the compounds.
(§5) Living cells mitochondria in the dehydrogenase can reduce yellow MTT to water-insoluble blue-violet product MT (MTT formazan), deposited in the cells. The amount of production is proportional to the number of living cells. […] DMSO can dissolve blue violet crystals, and the color depth is proportional to the amount contained, so the absorbance measured by the microplate reader can reflect the cell viability.
(§6) The exponential phase cells were digested and counted and seeded in 96-well plates at a density of 2×10^4/mL at 100 μl per well. After 24 hours of incubation, the cells to be tested were treated with 0.1, 1, 10, 20, 40, 60, 80, 100 μmol/L of the compounds. Each experimental group had 5 wells in each concentration, and the culture medium containing 0.4% DMSO was used as control. After 48 hours, the supernatant was discarded, and 100 μl of MTT ((2-(4,5-dimethyl-2-thiazolyl)-3,5-diphenyl-2H-tetrazole hydrobromide) (1 mg/mL) was added to each well. After another 4 hours, the supernatant was discarded, and 100 μL of DMSO was added to each well. After mixing, the absorbance was measured at 570 nm using a microplate reader. An IC50 calculation software was used to determine the half inhibitory concentration (IC50).

[2] = tested on: human lung cancer cell (A-549); assay: as above; assay type: cell-based; conditions: 48 hours treatment, A549
Experimental: as §1, §2, §3, §4, §5, §6

[3] = tested on: human prostate cancer cell line (PC-3); assay: as above; assay type: cell-based; conditions: 48 hours treatment
Experimental: as §1, §2, §3, §4, §5, §6

[4] = tested on: PC-3, SGC-7901 and A-549 tumor cells; assay: tumor cell proliferation inhibition test, summary over the three cell lines; assay type: cell-based, human; conditions: in the 3 cell lines tested
Experimental: as §1, §2, §6

Compound | IC50 [1] | IC50 [2] | IC50 [3] | activities compared with 5-fluorouracil [4]
CCN1C[C@]2(OC(=O)c3ccccc3NC(=O)/C(C)=C/c3cccc(C)n3)CC[C@H](OC)[C@]34C1[C@@H](C[C@H]23)[C@@]1(O)C[C@H](OC)C[C@H]2C[C@@H]4[C@]1(O)[C@H]2OC [Compound 18] | > 100 µM | > 100 µM | > 100 µM | 
CCc1ccnc(/C=C/C(=O)Nc2ccccc2C(=O)O[C@@]23CC[C@H](OC)[C@]45C([C@@H](C[C@H]24)[C@@]2(O)C[C@H](OC)C[C@H]4C[C@@H]5[C@]2(O)[C@H]4OC)N(CC)C3)c1 [Compound 15] | 21.8 ± 1.2 µM | 47.3 ± 2.56 µM | 44.1 ± 2.73 µM | 
CCN1C[C@]2(OC(=O)c3ccccc3NC(=O)/C=C(\C)c3cccnc3)CC[C@H](OC)[C@]34C1[C@@H](C[C@H]23)[C@@]1(O)C[C@H](OC)C[C@H]2C[C@@H]4[C@]1(O)[C@H]2OC [Compound 4] | > 100 µM | 67.31 ± 0.44 µM | > 100 µM | 
CCN1C[C@]2(OC(=O)c3ccccc3NC(=O)/C=C/c3cncc(C)c3)CC[C@H](OC)[C@]34C1[C@@H](C[C@H]23)[C@@]1(O)C[C@H](OC)C[C@H]2C[C@@H]4[C@]1(O)[C@H]2OC [Compound 5] | 29.6 ± 3.54 µM | 13.2 ± 0.39 µM | 11.3 ± 0.64 µM | equal or better activities than 5-fluorouracil
CCN1C[C@]2(OC(=O)c3ccccc3NC(=O)/C=C/c3ccncc3)CC[C@H](OC)[C@]34C1[C@@H](C[C@H]23)[C@@]1(O)C[C@H](OC)C[C@H]2C[C@@H]4[C@]1(O)[C@H]2OC [Compound 1] | 22.5 ± 1.35 µM | 9.12 ± 2.53 µM | 18.1 ± 0.64 µM | 
CCc1cncc(/C=C/C(=O)Nc2ccccc2C(=O)O[C@@]23CC[C@H](OC)[C@]45C([C@@H](C[C@H]24)[C@@]2(O)C[C@H](OC)C[C@H]4C[C@@H]5[C@]2(O)[C@H]4OC)N(CC)C3)c1 [Compound 8] | 33.5 ± 1.18 µM | 25.1 ± 2.23 µM | 38.1 ± 0.44 µM | 
CCN1C[C@]2(OC(=O)c3ccccc3NC(=O)/C=C/c3ccnc(C)c3)CC[C@H](OC)[C@]34C1[C@@H](C[C@H]23)[C@@]1(O)C[C@H](OC)C[C@H]2C[C@@H]4[C@]1(O)[C@H]2OC [Compound 11] | 10.2 ± 0.45 µM | 18.6 ± 0.43 µM | 10.2 ± 0.78 µM | equal or better activities than 5-fluorouracil
CCN1C[C@]2(OC(=O)c3ccccc3NC(=O)/C=C/c3cc(C)ccn3)CC[C@H](OC)[C@]34C1[C@@H](C[C@H]23)[C@@]1(O)C[C@H](OC)C[C@H]2C[C@@H]4[C@]1(O)[C@H]2OC [Compound 14] | 87.02 ± 0.58 µM | 41.3 ± 1.42 µM | 67.8 ± 1.3 µM | 
CCN1C[C@]2(OC(=O)c3ccccc3NC(=O)/C=C/c3ccccn3)CC[C@H](OC)[C@]34C1[C@@H](C[C@H]23)[C@@]1(O)C[C@H](OC)C[C@H]2C[C@@H]4[C@]1(O)[C@H]2OC [Compound 3] | 13.7 ± 1.28 µM |  | 15.2 ± 1.18 µM | 
CCN1C[C@]2(OC(=O)c3ccccc3NC(=O)/C=C/c3cc(C)cc(C)n3)CC[C@H](OC)[C@]34C1[C@@H](C[C@H]23)[C@@]1(O)C[C@H](OC)C[C@H]2C[C@@H]4[C@]1(O)[C@H]2OC [Compound 16] | > 100 µM | 69.3 ± 1.42 µM | 40.8 ± 2.55 µM | 
CCN1C[C@]2(OC(=O)c3ccccc3NC(=O)/C=C(\C)c3ccncc3)CC[C@H](OC)[C@]34C1[C@@H](C[C@H]23)[C@@]1(O)C[C@H](OC)C[C@H]2C[C@@H]4[C@]1(O)[C@H]2OC [Compound 9] | > 100 µM | > 100 µM | 73.37 ± 0.69 µM | 
CCN1C[C@]2(OC(=O)c3ccccc3NC(=O)/C=C/c3ccc(C)nc3)CC[C@H](OC)[C@]34C1[C@@H](C[C@H]23)[C@@]1(O)C[C@H](OC)C[C@H]2C[C@@H]4[C@]1(O)[C@H]2OC [Compound 7] | 39.3 ± 1.74 µM | 47.31 ± 0.44 µM | 43.3 ± 1.42 µM | 
CCN1C[C@]2(OC(=O)c3ccccc3NC(=O)/C(C)=C/c3ccncc3)CC[C@H](OC)[C@]34C1[C@@H](C[C@H]23)[C@@]1(O)C[C@H](OC)C[C@H]2C[C@@H]4[C@]1(O)[C@H]2OC [Compound 10] | > 100 µM | > 100 µM | > 100 µM | 
CCN1C[C@]2(OC(=O)c3ccccc3NC(=O)/C=C/c3cccnc3)CC[C@H](OC)[C@]34C1[C@@H](C[C@H]23)[C@@]1(O)C[C@H](OC)C[C@H]2C[C@@H]4[C@]1(O)[C@H]2OC [Compound 2] | 26.3 ± 0.37 µM | 13.4 ± 2.78 µM | 26.4 ± 0.36 µM | 
O=c1[nH]cc(F)c(=O)[nH]1 [Compound 5-FU, 5-fluorouracil, reference compound] | 22.4 ± 1.67 µM | 15.6 ± 3.54 µM | 8.17 ± 0.39 µM | 
CCN1C[C@]2(OC(=O)c3ccccc3NC(=O)/C=C/c3cnccc3C)CC[C@H](OC)[C@]34C1[C@@H](C[C@H]23)[C@@]1(O)C[C@H](OC)C[C@H]2C[C@@H]4[C@]1(O)[C@H]2OC [Compound 6] | 37.8 ± 0.42 µM | 42.65 ± 0.38 µM | 33.5 ± 1.17 µM | 
CCN1C[C@]2(OC(=O)c3ccccc3NC(=O)/C=C/c3cc(C(C)C)ccn3)CC[C@H](OC)[C@]34C1[C@@H](C[C@H]23)[C@@]1(O)C[C@H](OC)C[C@H]2C[C@@H]4[C@]1(O)[C@H]2OC [Compound 17] | > 100 µM | > 100 µM | 61.3 ± 1.24 µM | 
CCN1C[C@]2(OC(=O)c3ccccc3NC(=O)/C=C/c3cc(C)nc(C)c3)CC[C@H](OC)[C@]34C1[C@@H](C[C@H]23)[C@@]1(O)C[C@H](OC)C[C@H]2C[C@@H]4[C@]1(O)[C@H]2OC [Compound 13] | 18 ± 0.58 µM | 32.3 ± 1.34 µM | 16.6 ± 1.87 µM | 
CCN1C[C@]2(OC(=O)c3ccccc3NC(=O)/C=C/c3cccc(C)n3)CC[C@H](OC)[C@]34C1[C@@H](C[C@H]23)[C@@]1(O)C[C@H](OC)C[C@H]2C[C@@H]4[C@]1(O)[C@H]2OC [Compound 19] | 95.1 ± 1.92 µM | > 100 µM | > 100 µM | 
CCc1cc(/C=C/C(=O)Nc2ccccc2C(=O)O[C@@]23CC[C@H](OC)[C@]45C([C@@H](C[C@H]24)[C@@]2(O)C[C@H](OC)C[C@H]4C[C@@H]5[C@]2(O)[C@H]4OC)N(CC)C3)ccn1 [Compound 12] | 25.05 ± 0.16 µM | 21.7 ± 0.45 µM | 13.86 ± 0.1 µM | equal or better activities than 5-fluorouracil
